Series [1] is described as follows: Octanol/water partition (log P). In kind it is physicochemical. Conditions: shaking with water and octanol. The source says: Octanol/water partition coefficients (log P) are usually used as a model of drug transport between water and the biophase, as disclosed in A. Leo, C. Hansch, Substituent Constants—for Correlation Analysis in Chemistry. and' Biology, Wiley, New York, 1979 and A. Leo, C. Hansch, D. Elkins, Chem. Rev., 6, 525 (1971), both incorporated herein by reference. Often partition coefficients can be measured simply by shaking the compound with a mixture of water and octanol and determining the concentration of the solute in either solvent. P is equal to the concentration of the solute in octanol divided by its concentration in water. In general, it is possible to measure log P values ranging from −4.0 to 6.0. The situation is also more complicated when the species is charged because of the effects of ion pairing.

For series [2] the following is noted: Table XXII; chain substituent steric parameter; cited from earlier work.
For series [3] the following is noted: Table XXII; chain substituent hydrophobicity parameter; cited from earlier work.
The conditions of series [4]: Table XXII; chain substituent steric parameter; cited from earlier work. This is another data set of the same source.
Series [5] in a line: Dye solubility (water, 5% dextrose/water). Type of series: physicochemical. As to conditions: among compounds with enhanced activity. The source says:
Dye solubility is also a factor, since compounds having low water solubility are difficult or impossible to include in in vivo testing.
S13 is one of the simplest cyanine dye structures possible (in this nomenclature the S refers to the sulfur, the 1 indicates one carbon on the nitrogen and 3 indicates a 3 methine chain). […] A synthetic challenge will be to enhance the activity/selectivity of this dye and retain its good water solubility. [drawing 23]

Series [6] has as its system CV-1 Normal Monkey Kidney Epithelial. Description: Clonogenic dye screening assay, CV-1 cells (IC50). In kind it is cell-based, African green monkey. As to conditions: Primates. The method, boiled down: (§1)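 Cells seeded 16-30 h ahead (2000 CX-1 or 1000 CV-1 per well), exposed to serially diluted dyes for 3 h at 37 °C, rinsed three times, then grown into colonies. Eight-point curves spanned 0.32-0.0015 μg/mL (CX-1) and 3.2-0.025 μg/mL (CV-1). IC50 is the concentration killing 50% of cells.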

The test system of series [7] is CX-1 Human Colon Carcinoma. Description: Clonogenic dye screening assay, CX-1 cells (IC50). In kind it is cell-based. Conditions: for IC50: Homo sapiens; for Selectivity: Table 1, cell line not given, values equal CV/CX of Table II; for CV/CX (selectivity, kill ratio): ratio of IC50 in normal CV-1 line to IC50 in carcinoma CX-1 line. In outline:
as §1

For series [8] the following is noted: Table XXII; chain substituent electronic parameter; cited from earlier work.
A short description of series [9]: Clonogenic dye screening assay, CX-1 cells (IC50). In kind it is cell-based, human. Conditions: Homo sapiens, CX-1, Table XII column 5; unit from method; read-out: CV (Table XII). The method, boiled down:
as §1

The next series can be described thus: In vivo tests (toxicity). The source says:
Benzothiazole is by far the next best.

Where [10] appears, read: CV-1, 3 hrs treatment, colonies after 7-10 days, unit from method, read-out: CV (IC50 in the CV-1 cell line).
[11] abbreviates: CX-1, 3 hrs treatment, colonies after 7-10 days, unit from method, read-out: CX (IC50 in the CX-1 cell line).

Read-outs that look alike come from different tables or passages of the source.

Take `CCN1C(=CC=Cc2sc3ccccc3[n+]2CC)Sc2ccccc21.[I-]` [3,3′-diethylthiacarbocyanine iodide]: the octanol/water partition entry in series [1] is “partition completely into the octanol phase”.

`CN1/C(=C/C=C/c2sc3ccccc3[n+]2C)Sc2ccccc21` [Dye D-100]: in series [2], the B1 is on record as 1.00 and the L is 2.06. The π in series [3] was 0.00. Also, the MR in [4] is on record as 0.103. In addition, the solubility result in [5] is “most desirably soluble”. The IC50 in [6] (setting [10]) is 0.5 µg/mL. In addition, the IC50 in series [6] (CV-1, Table XX, thiacarbocyanine nitrogen substituents, CV-1 cells, read-out: CV) was determined as 0.5 µg/mL. Moreover, in series [7] (setting [11]), the IC50 stood at 5 ng/mL. The IC50 in series [7] (CX-1, Table XX, thiacarbocyanine nitrogen substituents, CX-1 cells, read-out: CX) is less than 5 ng/mL. Moreover, in series [7], the Selectivity was 100 and the “CV/CX (selectivity, kill ratio)” value was determined as 100. In series [7] (Table XX, ratio given a value of 1 where dye inactive), the CV/CX was 100.0. For the same compound, in series [8], the F is reported as 0.00, the R is 0.00, the σm is recorded as 0.00 and the σp is given as 0.00.

`CCN1/C(=C/C=C/c2sc3ccccc3[n+]2CC)Oc2ccccc21` [Dye D-104]: the IC50 in series [6] (setting [10]) stood at 1 µg/mL; in series [6] (CV-1, Table XVI, unsymmetrical dyes, CV-1 cells, read-out: CV) it was 1 µg/mL; in series [7] (setting [11]), 5 ng/mL; in [7] (CX-1, Table XVI, unsymmetrical dyes, CX-1 cells, read-out: CX), 5 ng/mL; in series [9] it was 5 ng/mL. In addition, the Selectivity in series [7] is 200. Also, the CV/CX in series [7] (Table XVI, selectivity ratio of IC50 values) is listed as 200.0. In addition, the “CV/CX (selectivity, kill ratio)” value in series [7] worked out at 200.

Consider `CCN1/C(=C/C=C/c2oc3ccc(-c4ccccc4)cc3[n+]2CC)Sc2ccccc21` [Dye D-131], for which the IC50 in series [6] (setting [10]) was 0.3 µg/mL; in series [7] (setting [11]), less than 5 ng/mL; in series [9], less than 5 ng/mL.

For the compound `CCN1/C(=C/C=C/c2sc3cc4c(cc3[n+]2CC)OCO4)Oc2ccccc21` [Dye D-163], the IC50 is 0.3 µg/mL in series [6] (setting [10]), 300 ng/mL in series [7] (setting [11]) and less than 5 ng/mL in [9]. Further, the “CV/CX (selectivity, kill ratio)” value in series [7] is reported as greater than 60.0.

In the case of Indole, in “In vivo tests (toxicity)”, the toxicity in vivo result is listed as “high toxicity”. In addition, the “CV/CX (selectivity, kill ratio)” value in [7] is “highest selectivity”.

Source of the values: patent US20060099712A1, “Correlation of anti-cancer activity of dyes with redox potentials” (Eastman Kodak Company, priority 2004, published 2006).
